Reference: US20080206149A1, “METHOD, DYE AND MEDICAMENT FOR STAINING THE INTERNAL LIMITING MEMBRANE, EPIRETINAL MEMBRANE, THE VITREOUS AND/OR THE CAPSULE OF AN EYE” (LUDWIG-MAXIMILIANS-UNIVERSITAT MUNCHEN, priority 2005, published 2008)
Entries after “also recorded” stand apart in the source; their conditions may differ.

How the values were obtained:
[1] = tested on: epiretinal membranes, ILM and vitreous; assay: Vitreoretinal surgery for macular pucker (Example 4); format: in vivo, human; settings: for staining effect of ERM: washed out after one minute
Description: The study was approved by the local ethics committee and Institutional Review Board, and written informed consent was obtained from all patients. Thirteen patients with macular pucker, seven males and six females with a mean age of 65, were included in the present study.
Preoperatively and postoperatively, patients underwent a complete clinical examination including measurement of best corrected visual acuity (VA), slit-lamp examination, tonometry, funduscopy using a 78 diopter lens (Volk Optical, Mentor, Ohio, USA), fluorescein angiography, OCT (Stratus), Goldmann perimetry, multifocal ERG and fundus photograph. Patients were seen one day before surgery and then in six-week intervals. Postoperatively, ERG and Goldmann perimetry were performed at the six-week follow-up visit and were not repeated if unremarkable.
Bromphenol blue was dissolved and diluted using BSS plus and sterilised using a 0.22 μm syringe filter and dye concentrations of 0.2% were then injected into the eye.
Vitrectomy consisted of a standard three-port pars plana vitrectomy as described in previous reports (Haritoglou C., Gandorfer A., Gass C. A., et al., “Indocyanine green-assisted peeling of the internal limiting membrane in macular hole surgery affects visual outcome: a clinicopathologic correlation”, Am J. Ophthalmol 2002; 134:836-41; Haritoglou C., Gandorfer A., Gass C. A., et al.: “The effect of indocyanine-green on functional outcome of macular pucker surgery, Am J. Ophthalmol 2003; 135:328-37). Before injection of the dye, a fluid air-exchange was performed to avoid an uncontrolled dye distribution. Then, a few drops of the dye were applied over the macular area. After a period of one minute, the dye was completely washed out by irrigation. The staining characteristics were then evaluated by the surgeon and an additional examiner (CH). This was followed by removal of epiretinal tissue and the ILM using an end-gripping forceps. After the removal of epiretinal tissue, no second dye injection was performed in this series of patients.
All epiretinal tissue removed during surgery was harvested and immediately prepared for ultrastructural analysis. Ultrathin sections were obtained from all specimens, contrasted with uranyl acetate and lead citrate, and analysed using a Zeiss EM 9 electron microscope (Zeiss Jena, Germany).

primary RPE cells = assay: MTT assay, primary RPE cells; settings: 0.2% and 0.02% dye, 10 minutes exposure, compared to BSS plus control
Description: In brief, whole eyes were thoroughly cleansed in 0.9% NaCl solution, immersed in 5% polyvinyl pyrrolidone iodine, and rinsed again in the sodiumchloride solution. The anterior segment from each donor eye was removed and the posterior poles were examined with the aid of a binocular stereomicroscope to confirm the absence of gross retinal disease. Next, the neural retinas were carefully peeled away from the RPE-choroid-sclera using fine forceps. The eye cup was rinsed with Ca^2+ and Mg^2+-free Hank's balanced salt solution, and filled with 0.25% trypsin (GIBCO, Karlsruhe, Germany) for 30 min at 37° C. The trypsin was carefully aspirated and replaced with Dulbecco's modified eagles medium (DMEM, Biochrom, Berlin, Germany) supplemented with 20% fetal calf serum (FCS, Biochrom). Using a pipette, the media was gently agitated, releasing the RPE into the media by avoiding damage to Bruch's membrane. The RPE cell solution was transferred to a 50 ml flask (Falcon, Wiesbaden, Germany) containing 20 ml of DMEM (Biochrom) supplemented with 20% FCS (Biochrom) and maintained at 37° C. and 5% carbon dioxide. […] After having grown to confluency (100%), primary RPE cells were subcultured and maintained in DMEM (Biochrom) supplemented with 10% FCS (Biochrom) at 37° C. and 5% carbon dioxide. Primary RPE of passage 3-6 and ARPE-19 cells were used for experiments.
For exposure of dyes RPE and ARPE-19 cells were kept for 24 hours under serum free conditions. After washing cells three times with PBS, cells were incubated for 10 minutes with 300 μl of BSS plus containing 0.2% or 0.02% of dye, respectively. […] The dye was then removed by carefully rinsing cells with BSS plus three times. After 24 hours incubation with serum containing media the cell proliferation assay was performed. […]
The tetrazolium dye-reduction assay (MTT; 3-[4,5-dimethylthiazol-2-yl]-2,5-diphenyl tetrazolium bromide;) was used to determine cell survival rate. […] Absorption was measured by a scanning multiwell spectrophotometer at 550 nm (Molecular Probes, Garching, Germany). […]

lens capsule = assay: Staining of the lens capsule in enucleated porcine eyes; settings: injected into air-filled anterior chamber, removed after one minute; clear porcine lens as background
Experimental: Additionally, the staining characteristics of the lens capsule in enucleated porcine eyes with a postmortem time of nine hours were evaluated. The dyes were injected into the air-filled anterior chamber and removed by irrigation after one minute. Then, the cornea was removed and a capsulorhexis was performed with a bent needle. All procedures were taped on video.

vitreous = assay: Vitrectomy for retinal detachment (Example 3); format: in vivo, humans
Description: (§1) This study was approved by the local ethics committee and Institutional Review Board (IRB) and written informed consent was obtained from all patients. Six consecutive patients with idiopathic macular hole, 3 males and 3 females with a mean age of 68 were included. Holes were graded as stage 2 (n=3), stage 3 (n=2) and stage 4 (n=1). The dye was also used in four patients with retinal detachments, 2 females and 2 males with a mean age of 57 years.
Pre- and postoperatively, all patients underwent a complete clinical examination including measurement of best corrected visual acuity (VA), slit lamp examination, tonometry, and funduscopy using a 78 diopter lens (Volk Optical, Mentor, Ohio, USA). In macular hole patients, we additionally performed optical coherence tomography (OCT) (Stratus-OCT, Carl Zeiss Meditec, Jena, Germany), Goldmann perimetry, multifocal electroretinogram (ERG) and fundus photographs. Patients were seen one day before surgery and then in six weeks intervals. Postoperatively, ERG and Goldmann perimetry were performed at the six weeks follow-up visit and were not repeated if unremarkable. […]
The dye was applied as follows: During pars plana vitrectomy for a macular hole a fluid air-exchange was performed prior to dye injection to achieve a maximum dye concentration on the retinal surface. […] The staining characteristics were then evaluated by the surgeon.

[2] = tested on: vitreous and posterior hyaloid; assay: Vitrectomy for idiopathic macular hole (Example 3); format: in vivo, humans
Description: as §1
Pre- and postoperatively, all patients underwent a complete clinical examination including measurement of best corrected visual acuity (VA), slit lamp examination, tonometry, and funduscopy using a 78 diopter lens (Volk Optical, Mentor, Ohio, USA). In macular hole patients, we additionally performed optical coherence tomography (OCT) (Stratus-OCT, Carl Zeiss Meditec, Jena, Germany), Goldmann perimetry, multifocal electroretinogram (ERG) and fundus photographs. Patients were seen one day before surgery and then in six weeks intervals. Postoperatively, ERG and Goldmann perimetry were performed at the six weeks follow-up visit and were not repeated if unremarkable.
Bromphenol blue powder was dissolved and diluted using BSS plus and sterilized using a 0.22 μm syringe filter. A final dye concentration of 0.2% was then injected into the eye. Vitrectomy first consisted of a core vitrectomy, followed by vitreous removal in the periphery in the area of the sclerotomy sites by indentation of the globe using a squint hook. Then an attempt was made to induce a posterior vitreous detachment by applying suction at the optic nerve head.
The dye was applied as follows: During pars plana vitrectomy for a macular hole a fluid air-exchange was performed prior to dye injection to achieve a maximum dye concentration on the retinal surface. Then, a few drops of the dye were injected over the posterior pole and the globe was gently moved to allow for an adequate dye distribution (FIG. 8A). This was followed by removal of excessive dye by irrigation after one minute. Then epiretinal tissue was removed if present and an attempt to peel the ILM using an end-gripping forceps was made in selected cases. Surgery was completed by fluid-air exchange and intraocular gas tamponade (hexafluoroethane (C2F6)) as previously described (Haritoglou C., Gandorfer A., Gass C. A., et al., “Indocyanine green-assisted peeling of the internal limiting membrane in macular hole surgery affects visual outcome: a clinicopathologic correlation”, Am J. Ophthalmol 2002; 134: 836-41). During surgery for retinal detachment the dye was applied after induction of a PVD and injection of approximately 1.5 ml heavy liquid (PFCL, perfluorocarbon, Fluoron GmbH, Neu-Ulm, Germany) and fluid-air exchange without removing PFCL (FIG. 8B). Using this approach, we obtained not only a higher dye concentration in the anterior segment of the eye as the dye can not be further diluted by PFCL, but we could also prevent an uncontrolled distribution especially in the subretinal space and excessive contact with the lens capsule, which may result in an unwanted staining effect. In addition we obtained a staining of the vitreous in the periphery as intended. C2F6 was used as an intraocular tamponade at the end of surgery. The staining characteristics were then evaluated by the surgeon.

[3] = 0.2%, listed as Bromphenol blue
[4] = 0.2%, listed as bromphenol blue

## O=S1(=O)OC(c2cc(Br)c(O)c(Br)c2)(c2cc(Br)c(O)c(Br)c2)c2ccccc21 [Bromophenol blue, Bromophenole blue]
[1]; 0.2%, patients with ERM
  staining of the ILM: did not observe sufficient staining of the ILM
[1]; [3]
  staining effect of ERM: varied depending on the thickness of the ERM
  staining of remnant vitreous at the vitreous base: could he seen in all cases; also recorded: strong staining
[1]; [4]
  staining effect of ERM: good staining properties
  staining of remnant vitreous at the vitreous base: good staining properties
[1]; epiretinal membranes of 8 patients, electron microscopy
  histology: cellular integrity of epiretinal cells: maintained their cellular integrity
[1]; in vivo
  amplitudes in postoperative ERG examinations: no affection of the amplitudes
  dye-related complications in any functional test performed: No dye-related complications
  loss of VA: No loss of VA
  peripheral visual field defects attributable to the dye: nor did we observe peripheral visual field defects
  safety profile intraoperatively and during follow-up: very good safety profile
[1]; overall patients
  VA postoperatively: 0.32
  VA preoperatively: 0.16
Primary RPE cells
  cell survival of primary RPE cells (MTT): no influence on cell survival
Lens capsule
  staining of the lens capsule in porcine eyes: stained well
vitreous; 0.2%, injected onto PFCL bubble
  identification of peripheral vitreous remnants at the vitreous base and retinal breaks: helped to identify peripheral remnants of vitreous
vitreous; in vivo
  reattachment of the retina: could be achieved in all cases
[2]; 0.2%, macular hole surgery
  staining of remnant vitreous in the periphery at the vitreous base: could be seen in all cases
[2]; 0.2%, three cases with complete PVD and no epiretinal membrane
  staining of the retinal surface or the ILM: no staining of the retinal surface or the ILM
[2]; in vivo
  amplitudes in postoperative ERG examinations: no affection of the amplitudes
  loss of VA: No loss of VA
  peripheral visual field defects indicating dye related toxicity: nor did we observe peripheral visual field defects
[2]; macular hole patients with incomplete PVD
  staining of the adherent posterior hyaloid membrane: very useful
[2]; overall patients
  VA postoperatively: 20/40
  VA preoperatively: 20/100
[2]; second operation necessary in one case
  macular hole closure: All macular holes could be closed successfully
